Consider 26 compounds from patent publication US9073821B2, “Hydroxamic acid derivative” (priority 2010, dated 2015).

A value given as a limit tells only on which side of the number the result lay.

This assay has as its target Pseudomonas aeruginosa LpxC enzyme (Pseudomonas aeruginosa (strain ATCC 15692 / DSM 22644 / CIP 104116 / JCM 14847 / LMG 12228 / 1C / PRS 101 / PAO1), UniProt P47205). As to the kind of experiment: biochemical. In kind it is biochemical. The note with it: inhibitory activity on Pseudomonas aeruginosa LpxC enzyme, class symbols A/B/C; read-out: Enzyme inhibitory activity.
With `CCCc1ccc(-c2ccc(C(=O)N(C)C(C(=O)NC)C(=O)NO)cc2)cc1` (centres unmarked) [Compound 182, N-hydroxy-N′-methyl-2-{methyl[(4′-propylbiphenyl-4-yl)carbonyl]amino}propanediamide], the IC50 was less than 10 nM.
In the case of `CNC(=O)C(C(=O)NO)N(C)C(=O)c1ccc(C#Cc2ccc(NCCO)cc2)cc1` (centres unmarked) [Compound 183, N-hydroxy-2-{[4-({4-[(2-hydroxyethyl)amino]phenyl}ethynyl)benzoyl](methyl)amino}-N′-methylpropanediamide], the IC50 is less than 10 nM.
The same measure for `CNC(=O)C(C(=O)NO)N(C)C(=O)c1ccc(-c2ccc3occc3c2)cc1` (centres unmarked) [Compound 184, 2-{[4-(1-benzofuran-5-yl)benzoyl](methyl)amino}-N-hydroxy-N′-methylpropanediamide]: less than 10 nM; for `CNC(=O)C(C(=O)NO)N(C)C(=O)c1ccc(-c2ccc(CCCO)cc2)cc1O` (centres unmarked) [Compound 185, N-hydroxy-2-[{[3-hydroxy-4′-(3-hydroxypropyl)biphenyl-4-yl]carbonyl}(methyl)amino]-N′-methylpropanediamide]: greater than 100 nM.
The same measure for `CN(C(=O)c1ccc(-c2ccccc2)cc1)C(C(N)=O)C(=O)NO` (centres unmarked) [Compound 186, 2-[(biphenyl-4-ylcarbonyl)(methyl)amino]-N-hydroxypropanediamide]: 10 to 100 nM; for `CNC(=O)C(C(=O)NO)N(C)C(=O)c1ccc(-c2ccc(C3OCCO3)cc2)cc1` (centres unmarked) [Compound 187, 2-[{[4′-(1,3-dioxolan-2-yl)biphenyl-4-yl]carbonyl}(methyl)amino]-N-hydroxy-N′-methylpropanediamide]: less than 10 nM; for `CNC(=O)C(C(=O)NO)N(C)C(=O)c1ccc(-c2ccc3nonc3c2)cc1` (centres unmarked) [Compound 189, 2-{[4-(2,1,3-benzoxadiazol-5-yl)benzoyl](methyl)amino}-N-hydroxy-N′-methylpropanediamide]: 10 to 100 nM.
Then `CNC(=O)C(C(=O)NO)N(C)C(=O)c1ccc(-c2ccccc2)nc1` (centres unmarked) [Compound 190, N-hydroxy-N′-methyl-2-{methyl[(6-phenylpyridin-3-yl)carbonyl]amino}propanediamide], with greater than 100 nM.
Consider `CNC(=O)C(C(=O)NO)N(C)C(=O)c1ccc(-c2ccc(OCCOC)cc2)cc1` (centres unmarked) [Compound 191, N-hydroxy-2-[{[4′-(2-methoxyethoxy)biphenyl-4-yl]carbonyl}(methyl)amino]-N′-methylpropanediamide], for which the IC50 is less than 10 nM.
Then `CNC(=O)C(C(=O)NO)N(C)C(=O)c1ccc(-c2cnc3ccccc3c2)cc1` (centres unmarked) [Compound 192, N-hydroxy-N′-methyl-2-{methyl[4-(quinolin-3-yl)benzoyl]amino}propanediamide], with 10 to 100 nM; and `CNC(=O)C(C(=O)NO)N(CCF)C(=O)c1ccc(-c2ccccc2)cc1` (centres unmarked) [Compound 193, 2-[(biphenyl-4-ylcarbonyl)(2-fluoroethyl)amino]-N-hydroxy-N′-methylpropanediamide], with less than 10 nM.
Then `CNC(=O)C(C(=O)NO)N(C)C(=O)c1ccc(-c2ccc(CN(C)C)cc2)cc1` (centres unmarked) [Compound 194, 2-[({4′-[(dimethylamino)methyl]biphenyl-4-yl}carbonyl)(methyl)amino]-N-hydroxy-N′-methylpropanediamide], with greater than 100 nM; and `CNC(=O)C(C(=O)NO)N(C)C(=O)c1ccc(-c2ccc(/C=N/O)cc2)cc1` (centres unmarked) [Compound 195, N-hydroxy-2-[({4′-[(E)-(hydroxyimino)methyl]biphenyl-4-yl}carbonyl)(methyl)amino]-N′-methylpropanediamide], with less than 10 nM; and `CNC(=O)C(C(=O)NO)N(C)C(=O)c1ccc(-c2ccc3c(cnn3C)c2)cc1` (centres unmarked) [Compound 196, N-hydroxy-N′-methyl-2-{methyl[4-(1-methyl-1H-indazol-5-yl)benzoyl]amino}propanediamide], with less than 10 nM.
Then `CNC(=O)C(C(=O)NO)N(C)C(=O)c1ccc(-c2ccc3nn(C)cc3c2)cc1` (centres unmarked) [Compound 197, N-hydroxy-N′-methyl-2-{methyl[4-(2-methyl-2H-indazol-5-yl)benzoyl]amino}propanediamide], with 10 to 100 nM.
For the compound `CNC(=O)C(C(=O)NO)N(C(=O)c1ccc(-c2ccc(OCCCN3CCOCC3)cc2)cc1)C1CC1` (centres unmarked) [Compound 198, 2-[cyclopropyl({4′-[3-(morpholin-4-yl)propoxy]biphenyl-4-yl}carbonyl)amino]-N-hydroxy-N′-methylpropanediamide], the IC50 is less than 10 nM.
The same measure for `CNC(=O)C(C(=O)NO)N(C)C(=O)c1ccc(-c2ccc3ncsc3c2)cc1` (centres unmarked) [Compound 199, 2-{[4-(1,3-benzothiazol-6-yl)benzoyl](methyl)amino}-N-hydroxy-N′-methylpropanediamide]: less than 10 nM; for `CNC(=O)C(C(=O)NO)N(C)C(=O)c1ccc(-c2ccc3ncccc3c2)cc1` (centres unmarked) [Compound 200, N-hydroxy-N′-methyl-2-{methyl[4-(quinolin-6-yl)benzoyl]amino}propanediamide]: less than 10 nM; for `CNC(=O)C(C(=O)NO)N(C)C(=O)c1ccc(-c2ccc3[nH]ccc3c2)cc1` (centres unmarked) [Compound 201, N-hydroxy-2-{[4-(1H-indol-5-yl)benzoyl](methyl)amino}-N′-methylpropanediamide]: less than 10 nM.
Then `CNC(=O)C(C(=O)NO)N(C)C(=O)c1ccc(C#Cc2ccc(CN(C)C)cc2)cc1` (centres unmarked) [Compound 202, 2-{[4-({4-[(dimethylamino)methyl]phenyl}ethynyl)benzoyl](methyl)amino}-N-hydroxy-N′-methylpropanediamide], with 10 to 100 nM; and `CNC(=O)C(C(=O)NO)N(C)C(=O)c1ccc(-c2ccc3[nH]c(C)cc3c2)cc1` (centres unmarked) [Compound 203, N-hydroxy-N′-methyl-2-{methyl[4-(2-methyl-1H-indol-5-yl)benzoyl]amino}propanediamide], with less than 10 nM.
Then `CNC(=O)C(C(=O)NO)N(C)C(=O)c1ccc(-c2ccc(CNCC(F)F)cc2)cc1` (centres unmarked) [Compound 204, 2-{[(4′-{[(2,2-difluoroethyl)amino]methyl}biphenyl-4-yl)carbonyl](methyl)amino}-N-hydroxy-N′-methylpropanediamide], with 10 to 100 nM; and `CNC(=O)C(C(=O)NO)N(C)C(=O)c1ccc(-c2ccc(CNC3CC3)cc2)cc1` (centres unmarked) [Compound 205, 2-[({4′-[(cyclopropylamino)methyl]biphenyl-4-yl}carbonyl)(methyl)amino]-N-hydroxy-N′-methylpropanediamide], with 10 to 100 nM; and `CNC(=O)C(C(=O)NO)N(C)C(=O)c1ccc(C#Cc2ccc(CCN3CCOCC3)cc2)cc1` (centres unmarked) [Compound 206, N-hydroxy-N′-methyl-2-{methyl[4-({4-[2-(morpholin-4-yl)ethyl]phenyl}ethynyl)benzoyl]amino}propanediamide], with less than 10 nM.
For `CNC(=O)C(C(=O)NO)N(C)C(=O)c1ccc(C#Cc2ccc(CCN3CCCOCC3)cc2)cc1` (centres unmarked) [Compound 207, N-hydroxy-N′-methyl-2-{methyl[4-({4-[2-(1,4-oxazepan-4-yl)ethyl]phenyl}ethynyl)benzoyl]amino}propanediamide], the IC50 was less than 10 nM.
As to `CNC(=O)C(C(=O)NO)N(C)C(=O)c1ccc(-c2ccc(OCCCN3CCOCC3)c(F)c2)cc1` (centres unmarked) [Compound 208, 2-[({3′-fluoro-4′-[3-(morpholin-4-yl)propoxy]biphenyl-4-yl}carbonyl)(methyl)amino]-N-hydroxy-N′-methylpropanediamide], the IC50 is less than 10 nM.
